Laboratory results: patent US9185914B2, “Substituted 5-(cyclohex-2-en-1-yl)-penta-2,4-dienes and 5-(cyclohex-2-en-1-yl)-pent-2-en-4-ines as active agents against abiotic stress in plants” (BAYER INTELLECTUAL PROPERTY GMBH, priority 2011, dated 2015)

Experiments:
Assay type in all cases: in vivo
Details in all cases: mean of three results
Brassica napus = assay: Drought stress test, spray application to greenhouse plants (Brassica napus)
Procedure: (§1) Seeds of monocotyledonous and dicotyledonous crop plants were laid out in sandy loam in wood-fiber pots, covered with soil and cultivated in a greenhouse under good growth conditions. The test plants were treated at the early leaf stage (BBCH10-BBCH13). To ensure uniform water supply before commencement of stress, the potted plants were supplied with the maximum amount of water immediately beforehand by dam irrigation and, after application, transferred into plastic inserts in order to prevent subsequent, excessively rapid drying. The compounds according to the invention, formulated in the form of wettable powders (WP), wettable granules (WG), suspension concentrates (SC) or emulsion concentrates (EC), were sprayed onto the green parts of the plants as an aqueous suspension at an equivalent water application rate of 600 l/ha with addition of 0.2% wetting agent (agrotin). Substance application is followed immediately by stress treatment of the plants (cold or drought stress). For cold stress treatment, the plants were kept under the following controlled conditions: • “day”: 12 hours with illumination at 8° C. • “night”: 12 hours without illumination at 1° C.
(§2) Drought stress was induced by gradual drying out under the following conditions: • “day”: 14 hours with illumination at 26° C. • “night”: 10 hours without illumination at 18° C.
(§3) The duration of the respective stress phases was guided mainly by the state of the untreated (=treated with blank formulation but without test compound), stressed control plants and thus varied from crop to crop. It was ended (by re-irrigating or transfer to a greenhouse with good growth conditions) as soon as irreversible damage was observed on the untreated, stressed control plants. In the case of dicotyledonous crops, for example oilseed rape and soybeans, the duration of the drought stress phase varied between 3 and 5 days; in the case of monocotyledonous crops, for example wheat, barley or corn, it varied between 6 and 10 days. The duration of the cold stress phase varied between 12 and 14 days.
(§4) The end of the stress phase was followed by an approx. 5-7-day recovery phase, during which the plants were once again kept under good growth conditions in a greenhouse. In order to rule out any influence of the effects observed by any fungicidal action of the test compounds, it was additionally ensured that the tests proceeded without fungal infection and without infection pressure.
(§5) After the recovery phase had ended, the intensities of damage were rated visually in comparison to untreated, unstressed controls of the same age (in the case of drought stress) or the same growth stage (in the case of cold stress). The intensity of damage was first recorded as a percentage (100%=plants have died, 0%=like control plants). These values were then used to calculate the efficacy of the test compounds (=percentage reduction in the intensity of damage as a result of substance application) by the following formula:
(§6) [formula] EF: efficacy (%) DVus: damage value of the untreated, stressed control DVts: damage value of the plants treated with test compound
(§7) The tables below list mean values in each case from three results of the same test.
(§8) Efficacies of selected compounds of the formula (I) under drought stress: […]

Triticum aestivum = assay: Drought stress test, spray application to greenhouse plants (Triticum aestivum)
Procedure: as §1, §2, §3, §4, §5, §6, §7, §8

Zea mays = assay: Drought stress test, spray application to greenhouse plants (Zea mays)
Procedure: as §1, §2, §3, §4, §5, §6, §7, §8

Structure (SMILES) | EF (BRSNS), efficacy = percentage reduction in the intensity of damage (Brassica napus; dosage 250 g/ha) [%] | EF (TRZAS), efficacy = percentage reduction in the intensity of damage (Triticum aestivum; dosage 250 g/ha) [%] | further results
CCC(C=CC1(O)C(C)=CC(=O)CC1(C)C)=CC(=O)OC (centres unmarked) [I.1-144] |  |  | EF (BRSNS), efficacy = percentage reduction in the intensity of damage (Brassica napus; dosage 25 g/ha): >5%; EF (TRZAS), efficacy = percentage reduction in the intensity of damage (Triticum aestivum; dosage 25 g/ha): >5%
CCCCCC(C=CC1(O)C(C)=CC(=O)CC1(C)C)=CC(=O)OCC (centres unmarked) [I.1-68] | >5 |  | 
CCCCC(C#CC1(O)C(C)=CC(=O)CC1(C)C)=CC(=O)OCC (centres unmarked) [I.1-60] | >5 | >5 | 
CCOC(=O)C=C(C#CC1(O)C(C)=CC(=O)CC1(C)C)CC (centres unmarked) [I.1-8] | >5 | >5 | 
CCOC(=O)C=C(C=CC1(O)C(C)=CC(=O)CC1(C)C)C(C)C (centres unmarked) [I.1-86] |  | >5 | 
CCCCCCC(C#CC1(O)C(C)=CC(=O)CC1(C)C)=CC(=O)OCC (centres unmarked) [I.1-72] | >5 |  | 
CCOC(=O)C=C(C=CC1(O)C(C)=CC(=O)CC1(C)C)CC (centres unmarked) [I.1-10] | >5 | >5 | EF (ZEAMX), efficacy = percentage reduction in the intensity of damage (Zea mays; dosage 250 g/ha): >5%
CCOC(=O)/C=C(\C#CC1(O)C(C)=CC(=O)CC1(C)C)C(F)(F)F (centres unmarked) [I.1-14, Ethyl (2E)-5-(1-hydroxy-2,6,6-trimethyl-4-oxocyclohex-2-en-1-yl)-3-(trifluoromethyl)pent-2-en-4-ynoate] |  |  | EF (ZEAMX), efficacy = percentage reduction in the intensity of damage (Zea mays; dosage 25 g/ha): >5%
CCC(C#CC1(O)C(C)=CC(=O)CC1(C)C)=CC(=O)NC1CC1 (centres unmarked) [I.2-18] | >5 |  | EF (ZEAMX), efficacy = percentage reduction in the intensity of damage (Zea mays; dosage 25 g/ha): >5%
CCOC(=O)C=C(C=CC1(O)C(C)=CC(=O)CC1(C)C)C1CC1 (centres unmarked) [I.1-116] | >5 | >5 | 
CCC/C(C#CC1(O)C(C)=CC(=O)CC1(C)C)=C/C(=O)OCC (centres unmarked) [I.1-2, Ethyl (2Z)-3-[(1-hydroxy-2,6,6-trimethyl-4-oxocyclohex-2-en-1-yl)ethynyl]hex-2-enoate] | >5 | >5 | 
CCOC(=O)C=C(C#CC1(O)C(C)=CC(=O)CC1(C)C)C(C)C (centres unmarked) [I.1-84] |  |  | EF (ZEAMX), efficacy = percentage reduction in the intensity of damage (Zea mays; dosage 250 g/ha): >5%
CCOC(=O)C=C(C#CC1(O)C(C)=CC(=O)CC1(C)C)C1CC1 (centres unmarked) [I.1-114] | >5 | >5 | 
CCC(C=CC1(O)C(C)=CC(=O)CC1(C)C)=CC(=O)O (centres unmarked) [I.1-20] | >5 | >5 | EF (ZEAMX), efficacy = percentage reduction in the intensity of damage (Zea mays; dosage 250 g/ha): >5%
CC1=CC(=O)CC(C)(C)C1(O)C=CC(=CC(=O)O)C1CC1 (centres unmarked) [I.1-46] | >5 | >5 | EF (ZEAMX), efficacy = percentage reduction in the intensity of damage (Zea mays; dosage 250 g/ha): >5%
CCC(C#CC1(O)C(C)=CC(=O)CC1(C)C)=CC(=O)OC (centres unmarked) [I.1-142] | >5 | >5 | EF (ZEAMX), efficacy = percentage reduction in the intensity of damage (Zea mays; dosage 250 g/ha): >5%
CCOC(=O)C=C(C=CC1(O)C(C)=CC(=O)CC1(C)C)C(C)(C)C (centres unmarked) [I.1-92] |  | >5 | EF (ZEAMX), efficacy = percentage reduction in the intensity of damage (Zea mays; dosage 250 g/ha): >5%
CCCCCCC(C=CC1(O)C(C)=CC(=O)CC1(C)C)=CC(=O)OCC (centres unmarked) [I.1-74] | >5 |  | 
CCC(C#CC1(O)C(C)=CC(=O)CC1(C)C)=CC(=O)NC(C)C (centres unmarked) [I.2-14] |  |  | EF (ZEAMX), efficacy = percentage reduction in the intensity of damage (Zea mays; dosage 25 g/ha): >5%
CCCC(=C/C(=O)OCC)/C=C/C1(O)C(C)=CC(=O)CC1(C)C (centres unmarked) [I.1-4, Ethyl (2Z)-3-[(E)-2-(1-hydroxy-2,6,6-trimethyl-4-oxocyclohex-2-en-1-yl)vinyl]hex-2-enoate] | >5 | >5 | 
CCOC(=O)/C=C(\C=C\C1(O)C(C)=CC(=O)CC1(C)C)C(F)(F)F (centres unmarked) [I.1-16, Ethyl (2E,4E)-5-(1-hydroxy-2,6,6-trimethyl-4-oxocyclohex-2-en-1-yl)-3-(trifluoromethyl)penta-2,4-dienoate] | >5 | >5 | 
CCOC(=O)C=C(C#CC1(O)C(C)=CC(=O)CC1(C)C)C1CCCC1 (centres unmarked) [I.1-122] |  |  | EF (TRZAS), efficacy = percentage reduction in the intensity of damage (Triticum aestivum; dosage 25 g/ha): >5%
CCOC(=O)C=C(C=CC1(O)C(C)=CC(=O)CC1(C)C)C1CCCC1 (centres unmarked) [I.1-124] |  | >5 | 
CC1=CC(=O)CC(C)(C)C1(O)C#C/C(=C\C(=O)O)C(F)(F)F (centres unmarked) [I.1-23, (2E)-5-(1-Hydroxy-2,6,6-trimethyl-4-oxocyclohex-2-en-1-yl)-3-(trifluoromethyl)pent-2-en-4-ynoic acid] | >5 | >5 | EF (ZEAMX), efficacy = percentage reduction in the intensity of damage (Zea mays; dosage 250 g/ha): >5%
